According to PubChem BioAssay (NCI):
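Assay format: 96-well plates, 48-hour exposure. TGI: total growth inhibition.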

Assays:
Assay in all cases: inhibition of tumour cell growth, NCI panel, 48 h
[1] = test system: HCT-116 colon
[2] = test system: TK-10 renal
[3] = test system: NCI-H226 lung
[4] = test system: SW-620 colon
[5] = test system: UACC-257 melanoma
[6] = test system: CCRF-CEM leukemia
[7] = test system: SNB-19 CNS
[8] = test system: SK-MEL-28 melanoma
[9] = test system: PC-3 prostate
[10] = test system: SK-MEL-5 melanoma
[11] = test system: KM12 colon
[12] = test system: MDA-N
[13] = test system: IGROV1 ovarian
[14] = test system: SN12C renal
[15] = test system: K-562 leukemia
[16] = test system: NCI-H460 lung
[17] = test system: LOX IMVI melanoma
[18] = test system: U251 CNS
[19] = test system: HCC-2998 colon
[20] = test system: MOLT-4 leukemia
[21] = test system: A549 NSCLC
[22] = test system: MDA-MB-231 breast
[23] = test system: MCF7 breast
[24] = test system: HCT-15 colon
[25] = test system: OVCAR-8 ovarian
[26] = test system: RPMI-8226 leukemia
[27] = test system: ACHN renal
[28] = test system: HOP-62 NSCLC
[29] = test system: A498 renal
[30] = test system: NCI-H23 lung
[31] = test system: DU-145 prostate
[32] = test system: T-47D breast
[33] = test system: SR leukemia
[34] = test system: HL-60(TB) leukemia
[35] = test system: MDA-MB-435
[36] = test system: SF-295 CNS
[37] = test system: SF-268 CNS
[38] = test system: HS 578T breast
[39] = test system: SK-OV-3 ovarian
[40] = test system: SF-539 CNS
[41] = test system: SNB-75 CNS
[42] = test system: NCI-H522 lung
[43] = test system: EKVX NSCLC
[44] = test system: OVCAR-5 ovarian
[45] = test system: 786-0 renal
[46] = test system: NCI/ADR-RES ovarian
[47] = test system: HT29 colon
[48] = test system: SK-MEL-2 melanoma
[49] = test system: COLO 205 colon
[50] = test system: HOP-92 NSCLC
[51] = test system: CAKI-1 renal
[52] = test system: UO-31 renal
[53] = test system: M14 melanoma
[54] = test system: RXF 393 renal
[55] = test system: OVCAR-4 ovarian
[56] = test system: MALME-3M melanoma
[57] = test system: OVCAR-3 ovarian
[58] = test system: UACC-62 melanoma

Measured: TGI

COc1ccc(C2(O)C(S(=O)(=O)c3ccc(C)cc3)=Cc3ccc(OC)cc32)cc1 (stereo not given)
60.1 µM: [41]
77.2 µM: [28]
97.4 µM: [36]
> 100 µM: [1] | [2] | [3] | [4] | [5] | [6] | [7] | [8] | [9] | [10] | [11] | [12] | [13] | [14] | [15] | [16] | [17] | [18] | [19] | [20] | [21] | [22] | [23] | [24] | [25] | [26] | [27] | [29] | [30] | [31] | [32] | [33] | [34] | [35] | [37] | [38] | [39] | [40] | [42] | [43] | [44] | [45] | [46] | [47] | [48] | [49]

CC(C)(C)C(=O)C(C(=O)c1ccccc1)C(=O)C(C)(C)C
> 100 µM: [1] | [2] | [3] | [4] | [5] | [6] | [7] | [8] | [9] | [10] | [11] | [12] | [13] | [50] | [14] | [15] | [16] | [17] | [18] | [19] | [51] | [20] | [21] | [22] | [23] | [52] | [24] | [25] | [26] | [27] | [28] | [29] | [30] | [31] | [32] | [53] | [34] | [35] | [54] | [36] | [37] | [38] | [39] | [55] | [40] | [41] | [56] | [42] | [43] | [57] | [44] | [45] | [46] | [47] | [48] | [49]

O=C(NC/C(Cl)=C/Cl)Nc1c2ccccc2nc2ccccc12
> 100 µM: [1] | [2] | [3] | [4] | [5] | [7] | [8] | [9] | [10] | [11] | [12] | [13] | [50] | [14] | [16] | [17] | [18] | [19] | [51] | [20] | [21] | [23] | [52] | [24] | [58] | [25] | [26] | [27] | [28] | [29] | [30] | [31] | [32] | [53] | [33] | [35] | [54] | [36] | [37] | [38] | [39] | [55] | [41] | [56] | [42] | [43] | [57] | [44] | [45] | [46] | [47] | [48] | [49]
93.2 µM: [40]
80.1 µM: [22]
